Measurements taken from patent US20180273531A1, “PYRIMIDINE COMPOUND AND MEDICAL USE THEREOF” (Japan Tobacco Inc., priority 2004, published 2018).

Tested on: colorectal cancer cell line HT-29 cells
Experiment: Growth inhibitory effect against cancer cell lines (3H-thymidine uptake), HT-29
Assay type: cell-based
Conditions: Homo sapiens, HT-29, inhibition of 3H-thymidine uptake; test substance 18 hrs, then 3H-thymidine 6 hrs; triplicate
Procedure: Renal cancer cell line ACHN cell or colorectal cancer cell line HT-29 cells were cultured in a 96 well plate at 1.0×10^4 cells/90 μL/well for 24 hrs, then a test substance dissolved in DMSO (dimethyl sulfoxide) was added. After 18 hrs, ^3H-thymidine (0.25 μCi/well) was added and the cells were cultured for 6 hrs. Using a cell harvester, the cells were recovered on a UniFilter-96 GF/B glass filter and the ^3H radioactivity uptaken by the cells was measured by TopCount (Packard). As a control, DMSO was used and the activity of the test substance was expressed in the concentration (IC50) necessary for inhibiting ^3H radioactivity uptaken by the cell to 50% of that of the control group. The measurements were made in triplicate.

Row | Compound | IC50 [µM]
1 | CN1CCN(c2cccc(-n3c(=O)n(C4CC4)c(=O)c4c(Nc5ccc(Br)cc5F)cc(=O)n(C)c43)c2)CC1 [Example 1-206] | 0.1 to 1
2 | Cc1c(=O)n(C)c(Nc2ccc(Br)cc2)c2c(=O)n(CCO)c(=O)n(-c3ccccc3)c12 [Example 4-85] | 0.1 to 1
3 | Cn1c(=O)cc(Nc2ccc(Br)cc2F)c2c(=O)n(C3CC3)c(=O)n(-c3cccc(NS(=O)(=O)CCN)c3)c21 [Example 1-313] | 0.01 to 0.1
4 | CC(C)c1ccc(Nc2cc(=O)n(C)c3c2c(=O)n(C2CC2)c(=O)n3-c2ccccc2)cc1 [Example 1-229] | 0.1 to 1
5 | CN(C)CC(=O)Nc1cccc(-n2c(=O)n(C3CC3)c(=O)c3c(Nc4ccc(Br)cc4F)cc(=O)n(C)c32)c1 [Example 1-277] | 0.01 to 0.1
6 | Cn1c(=O)cc(Nc2ccc(Br)cc2F)c2c(=O)n(C3CC3)c(=O)n(-c3cccc(N4CCCCC4)c3)c21 [Example 1-216] | 0.1 to 1
7 | CN(C)CCCc1cccc(-n2c(=O)n(C3CC3)c(=O)c3c(Nc4ccc(Br)cc4F)cc(=O)n(C)c32)c1 [Example 1-252] | 0.01 to 0.1
8 | COc1cccc(-n2c(=O)n(C3CC3)c(=O)c3c(Nc4ccc(Br)cc4)cc(=O)n(C)c32)c1 [Example 1-190] | 0.1 to 1
9 | COc1ccc(Nc2cc(=O)n(C)c3c2c(=O)n(C2CC2)c(=O)n3-c2ccccc2)c(Br)c1 [Example 1-211] | 0.1 to 1
10 | Cn1c(=O)cc(Nc2ccc(Br)cc2F)c2c(=O)n(C3CC3)c(=O)n(-c3cccc(N4CCCC4)c3)c21 [Example 1-215] | 0.1 to 1
11 | C=CCn1c(=O)c2c(Nc3ccc(N(C)C)cc3)cc(=O)n(C)c2n(-c2ccccc2)c1=O [Example 1-140] | 0.1 to 1
12 | COc1ccccc1-n1c(=O)n(C2CC2)c(=O)c2c(Nc3ccc(Br)cc3)cc(=O)n(C)c21 [Example 1-159] | 0.1 to 1
13 | CCn1c(=O)c2c(Nc3ccc(Br)cc3F)cc(=O)n(C)c2n(-c2ccccc2)c1=O [Example 1-164] | 0.01 to 0.1
14 | CN(C)C(=O)Nc1cccc(-n2c(=O)n(C3CC3)c(=O)c3c(Nc4ccc(Br)cc4F)cc(=O)n(C)c32)c1 [Example 1-324] | 0.01 to 0.1
15 | Cc1c(=O)n(C)c(Nc2ccc(I)cc2F)c2c(=O)n(CCCO)c(=O)n(-c3cccc(NS(C)(=O)=O)c3)c12 [Example 4-145] | 0.1 to 1
16 | Cc1c(=O)n(C)c(Nc2ccc(I)cc2F)c2c(=O)n(CCCO)c(=O)n(-c3ccc4oc(=O)[nH]c4c3)c12 [Example 4-146] | 0.1 to 1
17 | CCn1c(=O)c2c(Nc3ccc(Br)cc3F)cc(=O)n(C)c2n(-c2cccnc2)c1=O [Example 1-244] | 0.1 to 1
18 | CCc1ccc(Nc2cc(=O)n(C)c3c2c(=O)n(C2CC2)c(=O)n3-c2ccccc2)cc1 [Example 1-230] | 0.1 to 1
19 | Cn1c(=O)cc(Nc2ccc(Br)cc2F)c2c(=O)n(C3CC3)c(=O)n(-c3cccc(OCCN4CCCC4)c3)c21 [Example 1-233] | 0.1 to 1
20 | CN(C)CCCOc1cccc(-n2c(=O)n(C3CC3)c(=O)c3c(Nc4ccc(Br)cc4F)cc(=O)n(C)c32)c1 [Example 1-227] | 0.01 to 0.1
21 | Cc1c(=O)n(C)c(Nc2ccc(I)cc2F)c2c(=O)n(CCCO)c(=O)n(-c3ccccc3)c12 [Example 4-147] | 0.1 to 1
22 | Cn1c(=O)cc(Nc2ccc(Br)cc2F)c2c(=O)n(C3CC3)c(=O)n(-c3cccc(CCC(=O)O)c3)c21 [Example 1-201] | 0.1 to 1
23 | COc1ccc(Nc2cc(=O)n(C)c3c2c(=O)n(C2CC2)c(=O)n3-c2ccccc2)cc1 [Example 1-129] | 0.1 to 1
24 | Cn1c(=O)cc(Nc2ccc(Cl)cc2F)c2c(=O)n(C3CC3)c(=O)n(-c3ccccc3)c21 [Example 1-171] | 0.01 to 0.1

Row | Compound | IC50 [µM]
25 | CC(=O)Nc1cccc(-n2c(=O)n(CCCO)c(=O)c3c(Nc4ccc(I)cc4F)n(C)c(=O)c(C)c32)c1 [Example 4-135] | 0.1 to 1
26 | CC(=O)Nc1cccc(-n2c(=O)n(C3CC3)c(=O)c3c(Nc4ccc(C5CCCC5)cc4F)n(C)c(=O)c(C)c32)c1 [Example 4-57] | 0.1 to 1
27 | CN1CCN(CCCOc2cccc(-n3c(=O)n(C4CC4)c(=O)c4c(Nc5ccc(Br)cc5F)cc(=O)n(C)c43)c2)CC1 [Example 1-236] | 0.1 to 1
28 | CC(=O)N(c1cccc(-n2c(=O)n(C3CC3)c(=O)c3c(Nc4ccc(I)cc4F)n(C)c(=O)c(C)c32)c1)S(C)(=O)=O [Example 4-133] | 0.1 to 1
29 | CCN(C)c1ccc(Nc2cc(=O)n(C)c3c2c(=O)n(C2CC2)c(=O)n3-c2ccccc2)c(F)c1 [Example 1-217] | 0.1 to 1
30 | Cn1c(=O)cc(Nc2ccc(Br)cc2F)c2c(=O)n(C3CC3)c(=O)n(-c3cccc(NCCN)c3)c21 [Example 1-334] | 0.1 to 1
31 | Cn1c(=O)cc(Nc2ccc(Br)cc2F)c2c(=O)n(C3CC3)c(=O)n(-c3cccc(S(N)(=O)=O)c3)c21 [Example 1-288] | 0.01 to 0.1
32 | Cc1c(=O)n(C)c(Nc2ccc(I)cc2F)c2c(=O)n(CCCO)c(=O)n(-c3cccc(NC(=O)CO)c3)c12 [Example 4-148] | 0.1 to 1
33 | CC(=O)N(c1cccc(-n2c(=O)n(C3CC3)c(=O)c3c(Nc4ccc(I)cc4F)n(C)c(=O)c(C)c32)c1)S(=O)(=O)N(C)C [Example 4-138] | 0.1 to 1
34 | COc1cc(Br)ccc1Nc1cc(=O)n(C)c2c1c(=O)n(C1CC1)c(=O)n2-c1ccccc1 [Example 1-189] | 0.1 to 1
35 | CNC(=O)c1cccc(-n2c(=O)n(C3CC3)c(=O)c3c(Nc4ccc(Br)cc4F)cc(=O)n(C)c32)c1 [Example 1-292] | 0.01 to 0.1
36 | Cn1c(=O)cc(Nc2ccc(CC(F)F)cc2)c2c(=O)n(C3CC3)c(=O)n(-c3ccccc3)c21 [Example 1-326] | 0.1 to 1
37 | CC(=O)Nc1ccc(-n2c(=O)n(C3CC3)c(=O)c3c(Nc4ccc(Br)cc4F)n(C)c(=O)c(C)c32)cc1 [Example 4-4] | 0.1 to 1
38 | Cn1c(=O)cc(Nc2ccc(Br)cc2F)c2c(=O)n(C3CC3)c(=O)n(-c3cccc(N4CCCCC4=O)c3)c21 [Example 1-214] | 0.01 to 0.1
39 | Cn1c(=O)cc(Nc2ccc(Br)cc2F)c2c(=O)n(C3CC3)c(=O)n(-c3cccc(NC(=O)CCO)c3)c21 [Example 1-305] | 0.01 to 0.1
40 | CC(=O)N(C(C)=O)c1cccc(-n2c(=O)n(C3CC3)c(=O)c3c(Nc4ccc(I)cc4F)n(C)c(=O)c(C)c32)c1 [Example 4-140] | 0.1 to 1
41 | CCc1ccc(Nc2c3c(=O)n(C4CC4)c(=O)n(-c4ccc(NC(C)=O)cc4)c3c(C)c(=O)n2C)c(F)c1 [Example 4-75] | 0.01 to 0.1
42 | Cn1c(=O)cc(Nc2ccc(C(F)(F)F)cc2)c2c(=O)n(C3CC3)c(=O)n(-c3ccccc3)c21 [Example 1-273] | 0.1 to 1
43 | Cn1c(=O)cc(Nc2ccc(Br)cc2F)c2c(=O)n(C3CC3)c(=O)n(-c3cccc(OCCN4CCCCC4)c3)c21 [Example 1-234] | 0.1 to 1
44 | Cn1c(=O)cc(Nc2ccc(Br)cc2F)c2c(=O)n(C3CC3)c(=O)n(-c3ccc(S(C)(=O)=O)cc3)c21 [Example 1-225] | 0.1 to 1
45 | COc1ccc(-n2c(=O)n(C3CC3)c(=O)c3c(Nc4ccc(I)cc4F)n(C)c(=O)c(C)c32)cc1NC(C)=O [Example 4-63] | 0.01 to 0.1
46 | CCN(CC)CCOc1cccc(-n2c(=O)n(C3CC3)c(=O)c3c(Nc4ccc(Br)cc4F)cc(=O)n(C)c32)c1 [Example 1-235] | 0.1 to 1
47 | Cn1c(=O)cc(Nc2ccc(Br)cc2F)c2c(=O)n(C3CC3)c(=O)n(-c3cccc(CCCN4CCCCC4)c3)c21 [Example 1-255] | 0.1 to 1
48 | CC(=O)Nc1cccc(-n2c(=O)n(C3CC3)c(=O)c3c(Nc4ccccc4F)n(C)c(=O)c(C)c32)c1 [Example 4-7] | 0.1 to 1
